The structures appear in SMILES notation. Read-outs that look alike come from different tables or passages of the source.

The results in this text go back to US9283222B2 (priority 2006, dated 2016).

In experiment [1] the target is T1, PARP in C41 cells (Homo sapiens (Human), UniProt P09874). As to the kind of experiment: cell-based.
In experiment [2] the target is Recombinant Human Poly(ADP-Ribose) Polymerase (PARP), PARP-1 (Homo sapiens (Human), UniProt P09874). The conditions noted are these: read-out: PARP-1 (Ki).
Recombinant Human Poly(ADP-Ribose) Polymerase (PARP), PARP-1, sequence (P09874 whole entry): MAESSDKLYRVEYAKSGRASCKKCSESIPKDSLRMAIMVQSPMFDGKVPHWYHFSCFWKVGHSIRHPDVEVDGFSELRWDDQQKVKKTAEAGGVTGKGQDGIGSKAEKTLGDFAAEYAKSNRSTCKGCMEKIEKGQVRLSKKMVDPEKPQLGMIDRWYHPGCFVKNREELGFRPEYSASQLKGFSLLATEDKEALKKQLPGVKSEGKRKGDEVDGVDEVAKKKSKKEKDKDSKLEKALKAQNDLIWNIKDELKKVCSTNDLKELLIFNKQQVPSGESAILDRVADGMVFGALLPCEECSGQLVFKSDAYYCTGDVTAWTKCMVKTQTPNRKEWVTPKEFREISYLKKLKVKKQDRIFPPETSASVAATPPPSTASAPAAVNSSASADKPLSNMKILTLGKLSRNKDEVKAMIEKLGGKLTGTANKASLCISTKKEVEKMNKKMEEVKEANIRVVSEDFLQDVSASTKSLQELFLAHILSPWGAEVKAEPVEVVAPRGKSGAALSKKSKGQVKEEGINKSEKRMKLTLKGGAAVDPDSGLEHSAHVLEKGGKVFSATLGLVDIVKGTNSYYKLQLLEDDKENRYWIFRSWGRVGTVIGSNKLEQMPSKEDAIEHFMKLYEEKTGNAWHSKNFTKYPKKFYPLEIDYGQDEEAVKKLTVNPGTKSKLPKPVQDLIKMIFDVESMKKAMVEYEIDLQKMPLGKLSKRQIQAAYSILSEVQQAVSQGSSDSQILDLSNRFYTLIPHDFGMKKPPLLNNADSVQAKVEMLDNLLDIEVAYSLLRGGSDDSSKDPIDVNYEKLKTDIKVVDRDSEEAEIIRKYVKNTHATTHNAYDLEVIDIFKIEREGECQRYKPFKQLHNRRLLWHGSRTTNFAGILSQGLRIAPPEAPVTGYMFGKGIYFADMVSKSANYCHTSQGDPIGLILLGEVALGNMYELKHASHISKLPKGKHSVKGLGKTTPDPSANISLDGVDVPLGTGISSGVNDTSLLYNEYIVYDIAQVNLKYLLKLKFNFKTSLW
Experiment [3] deals with T1, PARP in C41 cells.
[4] abbreviates: Table 3, H analogs versus para-F analogs.
Where [5] appears, read: Table 3, C41 cells, ratio to comparator EC50.

T1 sequence (P09874 whole entry): as above

As a reminder, the EC50 is the concentration at which the effect is half-maximal. Higher therefore signals weaker potency. With `CCCN1CCC(c2nc3cccc(C(N)=O)c3[nH]2)CC1`, the EC50 on PARP in C41 cells [1] (EC50 generally ranged, range over all assays) was 1 to 13 nM; on PARP in C41 cells [1] (mean EC50 for all assays carried out, n=270) it was 3.2 nM.

Broadly, the Ki is the equilibrium dissociation constant of an inhibitor or competing ligand from its target. As to `NC(=O)C1CCN(C(=O)c2cccc(Cc3n[nH]c(=O)c4c3CCCC4)c2)CC1` [drawing 48], the Ki in experiment [2] (setting [4]) was found to be 5 nM. The “Cell EC50 ratio” value at PARP in C41 cells [3] (setting [5]) is listed as 215.

`CN1CCCN(C(=O)c2cc(Cc3n[nH]c(=O)c4c3CCCC4)ccc2F)CC1` [drawing 43]: the Ki in experiment [2] (setting [4]) is 1.5 nM. The “Cell EC50 ratio” value at PARP in C41 cells [3] was 0.6.

Take `CC(=O)N1CCN(C(=O)c2cc(Cc3n[nH]c(=O)c4c3CCCC4)ccc2F)CC1` [drawing 29]: the Ki in experiment [2] (setting [4]) is 0.1 nM. On PARP in C41 cells [3] (setting [5]), the “Cell EC50 ratio” value amounted to 2.3.

For the compound `O=C(c1cccc(Cc2n[nH]c(=O)c3c2CCCC3)c1)N1CCN(c2ccccn2)CC1` [drawing 32], the inhibition constant Ki in experiment [2] (setting [4]) was 3 nM. In addition, at PARP in C41 cells [3] (setting [5]), the “Cell EC50 ratio” value came to 1.9.

For `COc1ccc(C(=O)CCC(=O)Nc2cc(Cc3n[nH]c(=O)c4c3CCCC4)ccc2F)cc1` [drawing 15], the inhibition constant Ki in experiment [2] (setting [4]) is 0.7 nM. The “Cell EC50 ratio” value on PARP in C41 cells [3] (setting [5]) is on record as 2.6.

As for `O=C1CCCN1c1cc(Cc2n[nH]c(=O)c3c2CCCC3)ccc1F` [drawing 17], the Ki in experiment [2] (setting [4]) turned out to be 1.2 nM. Further, on PARP in C41 cells [3], the “Cell EC50 ratio” value was determined as 0.85.

`O=C(c1cc(Cc2n[nH]c(=O)c3c2CCCC3)ccc1F)N1CCN(c2ccccc2F)CC1` [drawing 39]: the Ki in experiment [2] (setting [4]) was 13 nM. Also, the “Cell EC50 ratio” value at PARP in C41 cells [3] (setting [5]) worked out at 1.3.

As to `Cc1c(C(=O)Nc2cc(Cc3n[nH]c(=O)c4c3CCCC4)ccc2F)cnn1-c1ccccc1` [drawing 23], in experiment [2] (setting [4]), the Ki stood at 15.8 nM. Also, on PARP in C41 cells [3] (setting [5]), the “Cell EC50 ratio” value is recorded as 17.6.

For the compound `O=C1CCC(=O)N1c1cccc(Cc2n[nH]c(=O)c3c2CCCC3)c1`, the Ki in experiment [2] (setting [4]) was 2 nM. The “Cell EC50 ratio” value at PARP in C41 cells [3] (setting [5]) stood at 1.7.

As for `O=C(c1cccc(Cc2n[nH]c(=O)c3c2CCCC3)c1)N1CCN(c2ncccn2)CC1` [drawing 26], the Ki in experiment [2] (setting [4]) amounted to 0.8 nM. Besides, at PARP in C41 cells [3] (setting [5]), the “Cell EC50 ratio” value was 0.93.

With `CCN1CCN(C(=O)c2cc(Cc3n[nH]c(=O)c4c3CCCC4)ccc2F)CC1` [drawing 31], the Ki in experiment [2] (setting [4]) was determined as 1.8 nM. For the same compound, the “Cell EC50 ratio” value on PARP in C41 cells [3] (setting [5]) was found to be 0.4.

In the case of `O=C(Nc1cc(Cc2n[nH]c(=O)c3c2CCCC3)ccc1F)C1CNC1`, in experiment [2] (setting [4]), the Ki stood at 0.7 nM. The “Cell EC50 ratio” value at PARP in C41 cells [3] was 34.4.

`O=C(c1cccc(Cc2n[nH]c(=O)c3c2CCCC3)c1)N1CCC(O)CC1` [drawing 46]: in experiment [2] (setting [4]), the Ki was 5 nM. Moreover, on PARP in C41 cells [3] (setting [5]), the “Cell EC50 ratio” value is listed as 13.

For the compound `O=C(Nc1cccc(Cc2n[nH]c(=O)c3c2CCCC3)c1)C1CNC1` [drawing 12], the Ki in experiment [2] (setting [4]) was 6.3 nM. Besides, the “Cell EC50 ratio” value at PARP in C41 cells [3] is 246.

Consider `O=C(c1cccc(Cc2n[nH]c(=O)c3c2CCCC3)c1)N1CCN(c2ccccc2)CC1` [drawing 34], for which the Ki in experiment [2] (setting [4]) was found to be 3 nM. In addition, the “Cell EC50 ratio” value on PARP in C41 cells [3] (setting [5]) is listed as 3.2.

As to `CCN1CCN(C(=O)c2cccc(Cc3n[nH]c(=O)c4c3CCCC4)c2)CC1` [drawing 30], in experiment [2] (setting [4]), the Ki stood at 10 nM. In addition, at PARP in C41 cells [3] (setting [5]), the “Cell EC50 ratio” value is listed as 1.8.

With `CN1CCN(CCNC(=O)c2cccc(Cc3n[nH]c(=O)c4c3CCCC4)c2)CC1` [drawing 54], the Ki in experiment [2] (setting [4]) stood at 24 nM. Besides, the “Cell EC50 ratio” value on PARP in C41 cells [3] (setting [5]) is reported as 31.

`NCC(=O)Nc1cccc(Cc2n[nH]c(=O)c3c2CCCC3)c1` [drawing 10]: the Ki in experiment [2] (setting [4]) was determined as 12 nM. Further, at PARP in C41 cells [3] (setting [5]), the “Cell EC50 ratio” value was 22.5.

Turning to `O=C1CCCN1c1cc(Cc2n[nH]c(=O)c3c2CCCC3)ccc1F` [drawing 7], the Ki in experiment [2] (Table 2, A2 is C1-alkyl versus no A2 (bond)) is 1.2 nM. Further, the “Cell Ratio EC50” value at PARP in C41 cells [3] came out at 0.85.

For the compound `O=C(c1cc(Cc2n[nH]c(=O)c3c2CCCC3)ccc1F)N1CCN(c2ncccn2)CC1` [drawing 27], the Ki in experiment [2] (setting [4]) was found to be 0.7 nM. The “Cell EC50 ratio” value on PARP in C41 cells [3] (setting [5]) worked out at 0.3.

As for `CC(=O)N1CCN(C(=O)c2cccc(Cc3n[nH]c(=O)c4c3CCCC4)c2)CC1` [drawing 28], the Ki in experiment [2] (setting [4]) came to 3 nM. Moreover, the “Cell EC50 ratio” value at PARP in C41 cells [3] is given as 6.1.
